# Results published in US4434151A, “Bifunctional chelating agents” (Medi-Physics, Inc., priority 1982, dated 1984).
# Experiments:
# [1] = Organ uptake (biodistribution) of 99mTc activity in mice after intravenous administration; format: in vivo; conditions: i.v.; for Organ uptake of 99mTc, Carcass / Organ uptake of 99mTc, Intestines / Organ uptake of 99mTc, Kidney / Organ uptake of 99mTc, Liver / Organ uptake of 99mTc, Lung / Organ uptake of 99mTc, Stomach / Organ uptake of 99mTc, Tail: average of four animals ± SD
# Method: (§1) The ^99m Tc complex used for the animal studies was prepared in Example 6 following both methods of reduction, stannous chloride or dithionite. The ^99m Tc-MGHA complexes labeled by either reduction method were tested in animals. The mass concentrations of the ^99m Tc complex administered to test animals were approximately 0.04 mg/kg body weight for rabbits and 13.0 mg/kg body weight for mice. The radioactivity administered to rabbits and mice were about 0.5 mCi and 1.5 mCi respectively. The pH of the injectant solution was approximately 5 to 6.
# Nonfasted male mice (1CR strain) weighing 20-24 grams were administered in the tail vein with 0.2 mL of a ^99m Tc-complex solution. At 15, 30, 60 minutes post administration groups of four animals were sacrificed by cervical dislocation and selected organs removed for ^99m Tc assay in a gross ionization counting chamber. The percentage of the injected dose corrected for ^99m Tc decay was calculated for the various organs at each sacrifice time.
# A ^99m Tc-MGHA complex prepared via a dithionite reduction of ^99m TcO4^- of Example 6 was administered to female albino mice weighing 20-24 gm. The test drug was administered through the lateral tail vein at a mass dose of approximately 13.0 mg/kg in a volume of 0.2 mL. The corresponding radioactive dose administered to each animal was 1.5 mCi. After injection, groups of four animals were sacrificed (cervical dislocation) at 15, 30 and 60 minutes. The liver, kidney, lung, heart, stomach and intestines (small and large) were removed and assayed for ^99m Tc activity in a gross ionization counting chamber. Also, the tails and remaining carcasses were individually assayed for ^99m Tc activity.
# Knowing the amount of ^99m Tc activity administered (assaying for ^99m Tc in the syringe before and after injection) and the amount assayed in the various organs, the percentage of injected dose (% ID) was calculated as: [formula] All activities (Ci) were initially corrected for ^99m Tc decay back to a fixed starting time using the standard first order differential equation for decay correction (see below): […]
# where N0 and N1 are initial and final activities (Ci) respectively. The half-life (T1/2) for ^99m Tc decay is 6.02 hr. The value of t is the elapsed time (hrs.) for the correction.
# The results of ^99m Tc uptake in various organs and tissues in mice administered ^99m Tc-MGHA labeled via a dithionite reduction is given in Table 1.
# A ^99m Tc-MGHA complex prepared via a stannous chloride reduction of 99mTcO.sbsb.4^- of Example 6 was administered to female albino mice weighing 20-24 gm. The same methods and procedures given in Example 19 were used to calculate the % ID for each organ.
# [2] = Gamma camera imaging / regional areas of interest in rabbits after intravenous administration; format: in vivo, rabbits (New Zealand White); conditions: i.v.; for Gamma camera count densities (RAI): rabbits
# Method: as §1
# Nonanesthetized and nonfasted male rabbits (New Zealand White) weighing 3.0-3.5 kg were restrained in dorsal recumbancy approximately 2-3 cm from the face of the gamma camera. After intravenous administration of 0.1 mL of the ^99m Tc-labeled complex solution in the marginal ear vein, anterior images were stored by a dedicated computer during injection, and 5, 10, 15, 20 and 30 minutes following administration.
# The ^99m Tc-complex prepared via a dithionate reduction of Example 6 was administered to male albino rabbits weighing 3.0-3.5 kg. The drug was injected into the marginal ear vein. The mass of drug administered was equivalent to ~0.04 mg/kg while the volume injected was 0.1 mL. The administered dose was ~0.5 mCi. Each test animal was restrained in dorsal recumbancy approximately 2-3 cm from the face of the gamma camera. Immediately after injection, 100-500 k counts were obtained from the gamma camera and stored on floppy disc. The computer controlled the maximum number of counts that could be stored per image. Sequential images were obtained and stored on disc at 5, 10, 15, 20 and 30 minutes following administration.
# After all images were stored, quantitative image analysis was utilized to obtain count densities in regional areas of interest (RAI). The RAIs were delineated as distinct anatomical structures. Three distinct areas were observed.
# A ^99m Tc-complex prepared via a stannous chloride reduction of Example 6 was administtered to male albino rabbits weighing 3.0-3.5 kg. […]
# [3] = mice, dithionite reduction, 15 min.
# [4] = mice, dithionite reduction, 30 min.
# [5] = mice, dithionite reduction, 60 min.
structure (smiles),measurement,setting,value
"CNC(=O)C1CC[S][99Tc-]23(=[O])[S]CC[N]2CC(=O)[N]13 [^99m Tc-MGHA, [2-[[1-(2mercaptoethyl)-2-(methylamino)-2-oxoethyl]-N-(2-mercaptoethyl)glycinato-N,N',S,S']oxotechnetate-99m]",Excretion of activity from the body,[1]; mice,rapid excretion of activity from the body
same,Total remaining activity (% injected dose),"[1]; mice, 30 minutes",approximately one-half of the injected dose
same,"Organ uptake of 99mTc, Carcass","[1]; mice, SnCl2 reduction, 15 min.",17.4 ± 2.8 % Injected Dose
same,"Organ uptake of 99mTc, Intestines","[1]; mice, SnCl2 reduction, 15 min.",28.7 ± 6.1 % Injected Dose
same,"Organ uptake of 99mTc, Kidney","[1]; mice, SnCl2 reduction, 15 min.",3.3 ± .9 % Injected Dose
same,"Organ uptake of 99mTc, Liver","[1]; mice, SnCl2 reduction, 15 min.",13.3 ± 5.4 % Injected Dose
same,"Organ uptake of 99mTc, Lung","[1]; mice, SnCl2 reduction, 15 min.",.9 ± .4 % Injected Dose
same,"Organ uptake of 99mTc, Stomach","[1]; mice, SnCl2 reduction, 15 min.",.3 ± .4 % Injected Dose
same,"Organ uptake of 99mTc, Tail","[1]; mice, SnCl2 reduction, 15 min.",1.4 ± .7 % Injected Dose
same,"Organ uptake of 99mTc, Carcass","[1]; mice, SnCl2 reduction, 30 min.",5.7 ± 2.9 % Injected Dose
same,"Organ uptake of 99mTc, Intestines","[1]; mice, SnCl2 reduction, 30 min.",27.3 ± 7.0 % Injected Dose
same,"Organ uptake of 99mTc, Kidney","[1]; mice, SnCl2 reduction, 30 min.",1.6 ± .4 % Injected Dose
same,"Organ uptake of 99mTc, Liver","[1]; mice, SnCl2 reduction, 30 min.",6.1 ± .9 % Injected Dose
same,"Organ uptake of 99mTc, Lung","[1]; mice, SnCl2 reduction, 30 min.",.2 ± .2 % Injected Dose
same,"Organ uptake of 99mTc, Stomach","[1]; mice, SnCl2 reduction, 30 min.",.6 ± .9 % Injected Dose
same,"Organ uptake of 99mTc, Tail","[1]; mice, SnCl2 reduction, 30 min.",.14 ± .2 % Injected Dose
same,"Organ uptake of 99mTc, Carcass","[1]; mice, SnCl2 reduction, 60 min.",12.4 ± 5.1 % Injected Dose
same,"Organ uptake of 99mTc, Intestines","[1]; mice, SnCl2 reduction, 60 min.",29.3 ± 10.4 % Injected Dose
same,"Organ uptake of 99mTc, Kidney","[1]; mice, SnCl2 reduction, 60 min.",2.3 ± .8 % Injected Dose
same,"Organ uptake of 99mTc, Liver","[1]; mice, SnCl2 reduction, 60 min.",7.7 ± 2.0 % Injected Dose
same,"Organ uptake of 99mTc, Lung","[1]; mice, SnCl2 reduction, 60 min.",.6 ± .3 % Injected Dose
same,"Organ uptake of 99mTc, Stomach","[1]; mice, SnCl2 reduction, 60 min.",.1 ± .2 % Injected Dose
same,"Organ uptake of 99mTc, Tail","[1]; mice, SnCl2 reduction, 60 min.",.7 ± .3 % Injected Dose
same,Kidney uptake of activity over time,"[1]; mice, at the various time intervals examined",declining at the various time intervals examined
same,"Organ uptake of 99mTc, Carcass",[1]; [3],21.9 ± 2.9 % Injected Dose
same,"Organ uptake of 99mTc, Intestines",[1]; [3],16.8 ± 3.0 % Injected Dose
same,"Organ uptake of 99mTc, Kidney",[1]; [3],3.1 ± .6 % Injected Dose
same,"Organ uptake of 99mTc, Liver",[1]; [3],11.3 ± 1.0 % Injected Dose
same,"Organ uptake of 99mTc, Lung",[1]; [3],.9 ± .2 % Injected Dose
same,"Organ uptake of 99mTc, Stomach",[1]; [3],.3 ± .01 % Injected Dose
same,"Organ uptake of 99mTc, Tail",[1]; [3],1.7 ± 1.0 % Injected Dose
same,"Organ uptake of 99mTc, Carcass",[1]; [4],13.4 ± 5.3 % Injected Dose
same,"Organ uptake of 99mTc, Intestines",[1]; [4],20.5 ± 2.0 % Injected Dose
same,"Organ uptake of 99mTc, Kidney",[1]; [4],3.4 ± .5 % Injected Dose
same,"Organ uptake of 99mTc, Liver",[1]; [4],7.6 ± .9 % Injected Dose
same,"Organ uptake of 99mTc, Lung",[1]; [4],.3 ± .1 % Injected Dose
same,"Organ uptake of 99mTc, Stomach",[1]; [4],.1 ± .1 % Injected Dose
same,"Organ uptake of 99mTc, Tail",[1]; [4],.3 ± .1 % Injected Dose
same,"Organ uptake of 99mTc, Carcass",[1]; [5],18.3 ± 2.5 % Injected Dose
same,"Organ uptake of 99mTc, Intestines",[1]; [5],16.9 ± 1.4 % Injected Dose
same,"Organ uptake of 99mTc, Kidney",[1]; [5],3.9 ± .6 % Injected Dose
same,"Organ uptake of 99mTc, Liver",[1]; [5],10.2 ± 1.6 % Injected Dose
same,"Organ uptake of 99mTc, Lung",[1]; [5],.5 ± .3 % Injected Dose
same,"Organ uptake of 99mTc, Stomach",[1]; [5],.8 ± .9 % Injected Dose
same,"Organ uptake of 99mTc, Tail",[1]; [5],1.1 ± .4 % Injected Dose
same,Kidney uptake,"[1]; mice, sacrifice times greater than 15 minutes post injection",little kidney uptake
same,Clearance of 99mTc activity out of the body,"[1]; mice, within the first 15 minutes",fast clearance out of the body within the first 15 minutes
same,Suggested route of 99mTc clearance,"[1]; test animals, indirect evidence",possible kidney clearance
same,Distinct areas observed in quantitative image analysis (RAI),"[2]; male albino rabbits, dithionite reduction, ~0.5 mCi, up to 30 minutes",The left and right kidneys and the bladder were clearly defined
same,Gamma camera count densities (RAI),[2]; SnCl2 reduction method,significant count densities in regions where the right and left kidneys were visualized
same,Gamma camera count densities (RAI),[2]; dithionite reduction method,significant count densities in regions where the right and left kidneys were visualized
